Each structure is given as a SMILES string. Activity calls are given as the source filed them. No cut-off for these calls is given here.

The target of data set [1] is T1, Acetylcholinesterase (Homo sapiens, UniProt P22303). The experiment in a line: Inhibition of human recombinant AChE using acetylthiocholine iodide as substrate up to 50 uM preincubated with enzyme for 20 mins prior to substrate addition by Ellman's method. (Ellman's reagent forms a yellow product with free thiols.)
In a further data set the target is Beta-secretase 1 (Homo sapiens, UniProt P56817). The experiment in a line: Inhibition of human recombinant BACE1 using M-2420 as substrate preincubated with enzyme for 1 hr by FRET assay.
The subject of the next data set is SH-SY5Y. The experiment in a line: (§1) Neurotoxicity against human SH-SY5Y cells assessed as inhibition of cell viability after 24 hrs by MTT assay. The conditions noted are these: sh-sy5y, 24 h. It counts as toxicity, cell-based. On the technique in general: Formazan colour is commonly taken as a measure of viable cells.
For data set [2], the target named is T1, Acetylcholinesterase.
Description: Inhibition of human recombinant AChE using acetylthiocholine iodide as substrate preincubated with enzyme for 20 mins prior to substrate addition by Ellman's method
Data set [3] is described as follows: as §1. It counts as toxicity, cell-based. The note with it: SH-SY5Y cells.

Sequence of Beta-secretase 1 (P56817 whole entry): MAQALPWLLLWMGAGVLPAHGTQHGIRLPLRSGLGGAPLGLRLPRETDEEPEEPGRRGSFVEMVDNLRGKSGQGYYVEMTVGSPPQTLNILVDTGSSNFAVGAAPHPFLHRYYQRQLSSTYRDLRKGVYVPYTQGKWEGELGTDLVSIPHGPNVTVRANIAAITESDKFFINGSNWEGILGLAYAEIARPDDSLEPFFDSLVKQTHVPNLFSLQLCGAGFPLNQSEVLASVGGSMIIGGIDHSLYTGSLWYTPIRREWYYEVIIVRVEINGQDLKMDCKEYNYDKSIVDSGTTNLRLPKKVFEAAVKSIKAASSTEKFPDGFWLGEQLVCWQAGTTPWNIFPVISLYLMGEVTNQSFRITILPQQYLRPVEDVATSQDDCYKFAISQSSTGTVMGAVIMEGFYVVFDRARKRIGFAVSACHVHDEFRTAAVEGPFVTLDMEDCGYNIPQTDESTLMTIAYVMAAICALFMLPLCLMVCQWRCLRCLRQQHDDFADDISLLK
T1 sequence (P22303 whole entry): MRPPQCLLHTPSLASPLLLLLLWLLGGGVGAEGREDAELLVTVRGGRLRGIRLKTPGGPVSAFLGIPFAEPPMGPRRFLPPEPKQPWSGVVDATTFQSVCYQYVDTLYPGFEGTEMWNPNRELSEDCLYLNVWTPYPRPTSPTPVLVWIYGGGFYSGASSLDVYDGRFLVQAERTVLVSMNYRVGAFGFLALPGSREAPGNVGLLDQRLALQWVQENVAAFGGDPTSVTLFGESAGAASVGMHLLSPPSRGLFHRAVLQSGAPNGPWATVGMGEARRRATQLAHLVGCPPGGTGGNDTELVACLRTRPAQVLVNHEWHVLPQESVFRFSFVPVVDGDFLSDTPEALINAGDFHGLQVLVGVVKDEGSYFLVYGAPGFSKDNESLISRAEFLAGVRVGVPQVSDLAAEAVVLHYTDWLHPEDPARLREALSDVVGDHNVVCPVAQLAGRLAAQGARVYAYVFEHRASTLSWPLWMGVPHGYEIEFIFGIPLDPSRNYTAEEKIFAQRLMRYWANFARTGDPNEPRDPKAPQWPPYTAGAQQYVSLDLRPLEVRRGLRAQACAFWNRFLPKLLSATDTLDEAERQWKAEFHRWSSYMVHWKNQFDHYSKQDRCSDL

Consider `CN(Cc1ccccc1)Cc1ccc(/C=C2\CCc3cc(OCCCCCN4CCN(C(c5ccc(F)cc5)c5ccc(F)cc5)CC4)ccc3C2=O)cc1`, for which the inhibition entry on Acetylcholinesterase [1] was “inactive”. Broadly, the IC50 is the midpoint of a concentration-inhibition curve. `CN(Cc1ccccc1)Cc1ccc(/C=C2\Cc3ccc(OCCCCCN4CCN(c5ccccc5)CC4)cc3C2=O)cc1`: the inhibition result on Acetylcholinesterase [1] is “inactive”. Further, on Beta-secretase 1, the IC50 was determined as 11.7 µM. On to `CN(Cc1ccccc1)Cc1ccc(/C=C2\Cc3ccc(OCCCCCN4CCC(=C(c5ccc(F)cc5)c5ccc(F)cc5)CC4)cc3C2=O)cc1`, for which, on Acetylcholinesterase [1], the inhibition result is “inactive”. Besides, on Beta-secretase 1, the IC50 is 5.95 µM. Consider `CN(Cc1ccccc1)Cc1ccc(/C=C2\Cc3ccc(OCCCCCN4CCN(C(c5ccc(F)cc5)c5ccc(F)cc5)CC4)cc3C2=O)cc1`, for which the Activity result with SH-SY5Y is “Non-toxic”. In addition, the inhibition entry on Acetylcholinesterase [1] is “inactive”. Moreover, at Beta-secretase 1, the IC50 is 2.49 µM. Take `CN(Cc1ccccc1)Cc1ccc(/C=C2\Cc3ccc(OCCCCCN4CCC(n5c(=O)[nH]c6ccccc65)CC4)cc3C2=O)cc1`: the inhibition result at Acetylcholinesterase [1] is “inactive”.

With `CN(Cc1ccccc1)Cc1ccc(/C=C2\Cc3ccc(OCCCCCN4CCN(OC(=O)C(C)(C)C)CC4)cc3C2=O)cc1`, the Activity result with SH-SY5Y is on record as “Non-toxic”. Further, on Acetylcholinesterase [1], the inhibition entry was “inactive”. Moreover, the IC50 at Beta-secretase 1 turned out to be 3.21 µM. As to `CN(Cc1ccccc1)Cc1ccc(/C=C2\Cc3ccc(OCCCCCN4CCC(c5ccccc5)CC4)cc3C2=O)cc1`, the IC50 against Acetylcholinesterase [2] amounted to 62 µM; at Beta-secretase 1, 13.4 µM. As for `CN(Cc1ccccc1)Cc1ccc(/C=C2\Cc3ccc(OCCCCCN4CCN(Cc5ccc(F)cc5)CC4)cc3C2=O)cc1`, the inhibition entry on Acetylcholinesterase [1] is “inactive”. Take `CN(Cc1ccccc1)Cc1ccc(/C=C2\CCc3cc(OCCCCCN4CCN(Cc5ccc(F)cc5)CC4)ccc3C2=O)cc1`: the IC50 on Acetylcholinesterase [2] worked out at 7.83 µM.

On to `CCOC(=O)C1(c2ccccc2)CCN(CCCCCOc2ccc3c(c2)C(=O)/C(=C/c2ccc(CN(C)Cc4ccccc4)cc2)C3)CC1`, for which the inhibition entry at Acetylcholinesterase [1] is “inactive”. The IC50 at Beta-secretase 1 was found to be 8.23 µM. Consider `CN(Cc1ccccc1)Cc1ccc(/C=C2\Cc3ccc(OCCCCCN4CCCCC4)cc3C2=O)cc1`, for which, in data set [3], the half-inhibitory concentration (IC50) at 24 h is 23.3 µM.
